According to PMC11271178, “Effect of Added Salt on the RAFT Polymerization of 2-Hydroxyethyl Methacrylate in Aqueous Media” (Macromolecules, 2024):

How the values were obtained:
[1] = cited from earlier work
[2] = Aqueous solubility of HEMA monomer vs added NaCl at 70 °C (gravimetric titration, visual end point); format: physicochemical
Experimental: Deionized water (2.0 g) was added to a pre-weighed vial equipped with a magnetic stir bar. This vial was placed in an oil bath set at 70 °C and allowed to equilibrate for 20 min. HEMA was added to a second pre-weighed vial and then added dropwise to the first vial at 70 °C. After the addition of each drop of HEMA, the aqueous HEMA mixture was stirred at 70 °C for 1 min. Visual inspection was used to judge the point at which the HEMA monomer droplets were no longer fully dissolved. […] This experiment was repeated with the deionized water being replaced with a series of aqueous salt solutions (up to 3 M NaCl).
However, its aqueous solubility strongly depends on the presence of salt. For example, the digital photograph shown in Figure 1 (blue frame) clearly illustrates the transition from fully soluble HEMA in 0–0.6 M NaCl to (partially) immiscible HEMA in the presence of 1.5 M NaCl. This change in physical appearance is used as the “end point” for a series of gravimetric titrations to determine the aqueous solubility of HEMA in various salt solutions at 70 °C. For example, HEMA solubility is reduced from 1305 g dm^–3 in 0.75 M NaCl to just 93 g dm^–3 in 3 M NaCl (see Figure 1). In principle, this should be sufficient for the mode of polymerization to switch from an aqueous dispersion polymerization to an aqueous emulsion polymerization. Moreover, added salt was also expected to lower the critical DP at which PHEMA chains become water-insoluble. Combining the salt-tunable aqueous solubility of HEMA with a suitable salt-tolerant precursor such as PMPC should facilitate a systematic study of the effect of added salt on the polymerization kinetics and copolymer morphology.

C=Cc1ccccc1 [styrene]
aqueous solubility of monomer [1]: ≤ 1 g dm^–3

C=C(C)C(=O)OCCO [HEMA, 2-hydroxyethyl methacrylate]
aqueous solubility of HEMA ([2]; 0.75 M NaCl, 70 °C): 1305 g dm^–3
aqueous solubility of HEMA ([2]; 3 M NaCl, 70 °C): 93 g dm^–3
solubility at 1 min ([2]; aqueous 1.5 M NaCl solution, water, 1.5 M NaCl, 70 °C, homogeneous at lower, emulsion at higher concentration, read-out: aqueous solubility of HEMA (homogeneous mixture vs emulsion)): ≥ 171 mg/mL
miscibility of HEMA with water ([2]; no added salt): fully miscible with water in all proportions
miscibility of HEMA with water ([2]; up to 0.6 M NaCl, 70 °C): water-miscible in all proportions

C=C(C)C(=O)OCC(F)(F)F [2,2,2-trifluoroethyl methacrylate]
aqueous solubility of monomer [1]: ≤ 1 g dm^–3

C=C(C)C(=O)OCc1ccccc1 [benzyl methacrylate]
aqueous solubility of monomer [1]: ≤ 1 g dm^–3
